Columns and labels:
[1] = system: Wistar rats; test: PAN-induced nephropathy, frequency of administration; type: in vivo, rat; conditions: 4 mg/kg i.v. x4
[2] = system: Lewis rats; test: Endotoxin-induced uveitis (EIU), duration of action after subconjunctival injection; type: in vivo, rat
[3] = system: female Sprague-Dawley rats; test: Cyclophosphamide (CYP)-induced acute cystitis, intravesical treatment; type: in vivo, rat; conditions: 24 h after CYP
[4] = system: primary macrophages; test: Uptake into primary cultured macrophages (specific antibody); type: cell-based; conditions: Fig. 24
[5] = Distribution of C14-labelled peptide, 72 h after s.c., i.v., i.p.; type: in vivo, mouse; conditions: 1 mg/kg, Fig. 25
[6] = Immunostaining of liver 24 h after 1 mg/kg i.v.; type: in vivo, rat; conditions: Fig. 26
[7] = system: THP-1 cells; test: LPS-induced cytokine release; type: cell-based; conditions: Fig. 27 A-C
[8] = system: murine macrophages; test: LPS-induced cytokine release in primary cells; type: cell-based, mouse; conditions: Fig. 28 A-C, non-toxic concentrations
[9] = Ocular pharmacokinetics after single and repeated subconjunctival administration; type: in vivo, rabbit
[10] = 20 μg/eye, 1 day before induction
[11] = 20 μg/eye, 2 days before induction
[12] = 20 μg/eye, 7 days before induction
[13] = 20 μg/eye, 14 days before induction
[14] = 20 μg/eye, 21 days before induction
[15] = 20 μg/eye, 28 days before induction

For “NH2-DQSRPVQPFLNLTTPRKPRPPRRRQRRKKRG-COOH (H-DQSRPVQPFLNLTTPRKPRPPRRRQRRKKRG-OH; also: D-amino acids (positions not given here)) [XG-102]”, the “percentage of injured glomeruli” value ([1]; day 49) was 76.9%, the “mean % glomeruli with grade 1” value ([1]; day 49 (PAN/vehicle 37%)) was 61% and the “mean % glomeruli with grade 2” value ([1]; day 49 (PAN/vehicle 46%)) was 15%. The “clinical score, mean ± SEM (n=20)” value ([2]; 20 μg/eye subconj., day of induction, 24 h after LPS, vehicle 4.0 ± 0.2) was 2.8 ± 0.2, the “clinical score, mean ± SEM (n=20)” value [2, 10] was 1.6 ± 0.1 and the “clinical score, median” value [2, 10] was 1.5. The “leukocytes in aqueous humor, mean ± SEM (n=20)” value (shortened to “leukocytes … mean ± SEM (n=20)”) [2, 10] was 1668 ± 149 세포/μL, the “leukocytes in aqueous humor, median” value [2, 10] was 1540 세포/μL and the “reduction of clinical score” value [2, 10] was 60%. For the same substance, the “reduction of leukocyte infiltration” value [2, 10] was 48%, the “clinical score, mean ± SEM (n=20)” value [2, 11] was 1.8 ± 0.2 and the “clinical score, median” value [2, 11] was 2.0. For the same substance, the “leukocytes … mean ± SEM (n=20)” value [2, 11] was 1844 ± 232 세포/μL, the “leukocytes in aqueous humor, median” value [2, 11] was 1500 세포/μL and the “reduction of clinical score” value [2, 11] was 55%. The “reduction of leukocyte infiltration” value [2, 11] was 43%, the “clinical score, mean ± SEM (n=20)” value [2, 12] was 3.3 ± 0.2 and the “clinical score, median” value [2, 12] was 3.0. The “leukocytes … mean ± SEM (n=20)” value [2, 12] was 2878 ± 331 세포/μL, the “leukocytes in aqueous humor, median” value [2, 12] was 2473 세포/μL and the “reduction of clinical score” value [2, 12] was 18%. The “reduction of leukocyte infiltration” value [2, 12] was 11%, the “clinical score, mean ± SEM (n=20)” value [2, 13] was 2.9 ± 0.2 and the “clinical score, median” value [2, 13] was 3.0. The “leukocytes … mean ± SEM (n=20)” value [2, 13] was 976 ± 143 세포/μL, the “leukocytes in aqueous humor, median” value [2, 13] was 648 세포/μL and the “reduction of clinical score” value [2, 13] was 28%. For the same substance, the “reduction of leukocyte infiltration” value [2, 13] was 70%, the “clinical score, mean ± SEM (n=20)” value [2, 14] was 3.1 ±0.3 and the “clinical score, median” value [2, 14] was 3.0. For the same substance, the “leukocytes … mean ± SEM (n=20)” value [2, 14] was 1029 ± 164 세포/μL, the “leukocytes in aqueous humor, median” value [2, 14] was 1023 세포/μL and the “reduction of clinical score” value [2, 14] was 23%. The “reduction of leukocyte infiltration” value [2, 14] was 68%, the “clinical score, mean ± SEM (n=20)” value [2, 15] was 3.3 ± 0.2 and the “clinical score, median” value [2, 15] was 4.0. The “leukocytes … mean ± SEM (n=20)” value [2, 15] was 1260 ± 263 세포/μL, the “leukocytes in aqueous humor, median” value [2, 15] was 915 세포/μL and the “reduction of clinical score” value [2, 15] was 18%. The “reduction of leukocyte infiltration” value [2, 15] was 61%, the “clinical score, median” value ([2]; 20 μg/eye, day of induction) was 3.0 and the “leukocytes in aqueous humor, median” value ([2]; 20 μg/eye, day of induction) was 2005 세포/μL. The “reduction of clinical score” value ([2]; 20 μg/eye, day of induction) was 30%, the “reduction of leukocyte infiltration” value ([2]; 20 μg/eye, day of induction) was 31% and the “leukocytes … mean ± SEM (n=20)” value ([2]; 20 μg/eye, day of induction, vehicle 3236 ± 346) was 2226 ± 192 세포/μL. For the same substance, the “AUC 1-8 g (allodynia) vs vehicle” value ([3]; 50 mg/mL i.ves.) was “현저하게 감소되었다”, the “AUC 8-60 g (hyperalgesia) vs vehicle” value ([3]; 50 mg/mL i.ves.) was “감소되었다” and the haemorrhage score ([3]; 50 mg/mL i.ves.) was “통계적으로 현저한 것에 이르지는 않았다”. The “nociceptive scores vs vehicle” value ([3]; 50 mg/mL i.ves.) was “현저하게 감소시켰다”, the “urinary bladder wall thickness” value ([3]; 50 mg/mL i.ves.) was “현저하게 감소되었다” and the “nociceptive threshold vs vehicle” value ([3]; 50 mg/mL, 500 μL i.ves.) was “현저하게 증가하였다”. For the same substance, the “incorporation into primary macrophages” value [4] was “강하게 병합된다”, the tissue accumulation [5] was “간, 비장 및 골수 대부분에서 XG-102 펩타이드의 축적” and the “accumulation in liver, especially Kupffer cells” value [6] was “명백한 축적”. The “LPS-induced TNFa, IL-6, MCP-1 release” value [7] was “사이토카인 방출을 억제한다”, the “LPS-induced TNFa, IL-6, Rantes release” value [8] was “사이토카인 방출을 억제한다” and the “presence in choroid, bulbar conjunctiva, iris-ciliary body” value ([9]; 7 days after administration) was “여전히 존재함”. For the same substance, the detection in plasma ([9]; rabbit, in vivo) was “항상 검출되지 않았다”.
